Experimental data from patent US5281605A, “Novel xanthine derivatives” (Sandoz Ltd., priority 1986, dated 1994).
Where two headings read alike, the source gives them in different places.

How the values were obtained:
[1] = Level of activity of R- versus S-isomers in animal models; type: in vivo; details: R-isomers of examples 22 and 24 compared with S-isomers of examples 23 and 25 respectively
Isolated human bronchus = test: Bronchospasmolytic activity in vitro: isolated human bronchus (A.1.2); details: read-out: EC50, relaxation of human bronchus rings
Experimental: (§1) The trachea is excised from freshly sacrificed guineα-pigs and transected in the transverse plane to give rings of tissue of ca. 2 mm. Individual rings are mounted vertically on stainless steel supports, one of which is fixed at the base of an organ bath, the other being attached to a tension transducer. The rings are bathed in modified Tyrode solution at 37° C. and gassed with O2 /CO2 (95:5, v/v). Rings prepared in this manner, preloaded with 1 g, generate spontaneous tone and, after a period of equilibration, relax on addition of spasmolytic drugs. Tension can be enhanced by addition of carbachol (10^-6 M) or histamine (10^-4 M). To ascertain spasmolytic activity, test substances are dissolved in physiological saline and added in increasing quantities to the organ bath at 5 min. intervals to provide a cumulative concentration-effect curve.
1.2. Isolated human bronchus:
Rings of bronchus (ca. 2 mm depth) are dissected from samples of human lung, resected from patients with lung carcinoma but grossly free of disease. Activity is determined employing the methodology of example A.1.1.

[2] = system: bombesin-induced bronchospasm; test: Bronchodilator activity in vivo: inhibition of bombesin-induced bronchospasm (A.2.1); details: Cavia porcellus, iv; anaesthetised guinea pigs; i.v. at the height of bombesin-induced bronchospasm; read-out: ED50, reversal of bombesin-induced bronchospasm
Experimental: 2.1. Inhibition of bronchospasm:
Guinea pigs are anaesthetised with pentobarbital (30 mg/kg i.p.) and phenobarbital (100 mg/kg i.p.) and ventilated via a tracheal cannula (10 ml/kg, 1 Hz). Ventilation is monitored either by a pressure transducer measuring air-flow (Konzett-Rossler method), or by a Fleisch flow transducer in line with the inspiratory circuit. When making measurements of flow, coincident pressure changes in the thorax are monitored directly via an intrathoracic trochar, permitting display of differential pressure relative to the trachea. From this information resistance and compliance are calculated at each inspiration.
Intravenous injection of bombesin (ca. […]) as a bolus, induces increased airways resistance Wilich is sustained over a period of several minutes. Capacity of test-substance to reverse response when administered i.v. at the height of bombesin-induced bronchospasm serves as a measure of efficacy in reversing established bronchospasm.

[3] = system: Isolated guineα-pig trachea; test: Bronchospasmolytic activity in vitro: isolated guinea-pig trachea (A.1.1); details: Cavia porcellus
Experimental: 1.1. Isolated guineα-pig trachea:
as §1

EC50 (Isolated human bronchus) [nM]	EC50 ([3]; basal tone, read-out: EC50, relaxation of tracheal rings, basal tone) [nM]	EC50 ([3]; in the presence of carbachol (10^-6 M), read-out: EC50, relaxation of tracheal rings, carbachol) [nM]	EC50 ([3]; in the presence of histamine (10^-4 M), read-out: EC50, relaxation of tracheal rings, histamine) [nM]	Structure (SMILES)	level of activity in animal models [1]	ED50 [2] [mg/kg]
				COCCn1c(N[C@@H](COC)c2ccc(OC)c(OC)c2)nc2c1c(=O)n(C)c(=O)n2C [Example 24]	higher level of activity	
1200				COCCn1c(NC(CO)c2ccc(OC)c(OC)c2)nc2c1c(=O)n(C)c(=O)n2C (stereo not shown) [Example 7]		
	860	19000	170	COCCn1c(N[C@@H](CO)c2ccc(OC)c(OC)c2)nc2c1c(=O)n(C)c(=O)n2C [Example 22]	higher level of activity	0.03 to 0.09
